Data on twelve compounds can be found in the supplement of paper PMC6461962.

Assay [1] has as its system Pseudomonas fluorescens FW300-N2E2. Put shortly:
(§1)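 Growth was read as OD600 at 24 h, or at 48 h for R2A strain comparisons, after washed cells at a final OD600 of 0.02 (80 µL) were added to 384-well plates holding serially diluted inorganic ion salts or equimolar nitrilotriacetic acid complexes. Aerobic plates were shaken at 700 rpm at 30 °C, but anaerobic plates were not. IC50 was calculated with the drc R package from at least two biological replicate curves, scaled between water and growth-blocking antibiotic controls and excluding wells with precipitate.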

Assay [2] deals with Rhodanobacter sp. FW104-10B01. In a few lines: as §1
The mark [3] stands for this setting: medium / electron acceptor: N2E2 Glucose/aerobic.
The mark [4] stands for this setting: medium / electron acceptor: N2E2 Glucose/aerobic 0.25xMinerals.
Setting [5] is: medium / electron acceptor: N2E2 Glucose/aerobic (2).
The mark [6] stands for this setting: medium / electron acceptor: N2E2 KB/aerobic.
[7] abbreviates: medium / electron acceptor: N2E2 LB/aerobic.
The mark [8] stands for this setting: medium / electron acceptor: N2E2 LB/aerobic (2).
The mark [9] stands for this setting: medium / electron acceptor: N2E2 LB/nitrate.
The mark [10] stands for this setting: medium / electron acceptor: N2E2 Lactate/aerobic.
[11] abbreviates: medium / electron acceptor: N2E2 R2A/aerobic.
[12] abbreviates: medium / electron acceptor: 10B01 R2A/aerobic.
[13] abbreviates: medium / electron acceptor: 10B01 R2A/nitrate.

A value given as a limit tells only on which side of the number the result lay.

Consider `O.O.O.O.O.O.[Al+3].[Cl-].[Cl-].[Cl-]` [Aluminum chloride hydrate], for which the IC50 growth inhibition in assay [1] (setting [3]) was greater than 5000 µM; in assay [1] (setting [4]), 409 µM; in assay [1] (setting [5]), greater than 5000 µM; in assay [1] (setting [6]), greater than 5000 µM; in assay [1] (setting [7]), greater than 5000 µM; in assay [1] (setting [8]) it was greater than 5000 µM. For the same compound, the IC50 growth inhibition in assay [1] (setting [9]) is 4640 µM; in assay [1] (setting [10]) it was greater than 5000 µM; in assay [1] (setting [11]) it was 227 µM; in assay [2] (setting [12]), 3540 µM; in assay [2] (setting [13]) it was greater than 5000 µM.

With `Cl.N` [Ammonium chloride], the IC50 growth inhibition in assay [1] (setting [3]) is 354000 µM; in assay [1] (setting [4]) it was 347000 µM; in assay [1] (setting [5]), 330000 µM; in assay [1] (setting [6]) it was 333000 µM; in assay [1] (setting [7]), 372000 µM; in assay [1] (setting [8]) it was 422000 µM. In addition, the IC50 growth inhibition in assay [1] (setting [9]) was 199000 µM; in assay [1] (setting [10]), 355000 µM; in assay [1] (setting [11]), greater than 500000 µM; in assay [2] (setting [12]), greater than 500000 µM; in assay [2] (setting [13]), greater than 500000 µM.

As for `O.O.[Ba+2].[Cl-].[Cl-]` [Barium chloride dihydrate], the IC50 growth inhibition in assay [1] (setting [3]) is greater than 5000 µM; in assay [1] (setting [4]), 3190 µM; in assay [1] (setting [5]), 2840 µM; in assay [1] (setting [6]) it was 3220 µM; in assay [1] (setting [7]) it was greater than 5000 µM; in assay [1] (setting [8]), greater than 5000 µM. The IC50 growth inhibition is 4990 µM in assay [1] (setting [9]); greater than 5000 µM in assay [1] (setting [10]); greater than 5000 µM in assay [1] (setting [11]); greater than 5000 µM in assay [2] (setting [12]); greater than 5000 µM in assay [2] (setting [13]).

Regarding `O.O.O.O.O.[Cd+2].[Cd+2].[Cl-].[Cl-].[Cl-].[Cl-]` [Cadmium chloride hemipentahydrate], the IC50 growth inhibition in assay [1] (setting [3]) is less than 2.44 µM; in assay [1] (setting [4]), less than 2.44 µM; in assay [1] (setting [5]), less than 2.44 µM; in assay [1] (setting [6]) it was 117 µM; in assay [1] (setting [7]) it was 141 µM; in assay [1] (setting [8]), 51.6 µM. The IC50 growth inhibition in assay [1] (setting [9]) is 111 µM; in assay [1] (setting [10]), less than 2.44 µM; in assay [1] (setting [11]) it was 14 µM; in assay [2] (setting [12]), 110 µM; in assay [2] (setting [13]), 189 µM.

As for `[Ca+2].[Cl-].[Cl-]` [Calcium chloride dihydrate], the IC50 growth inhibition was greater than 500000 µM in assay [1] (setting [3]); greater than 500000 µM in assay [1] (setting [4]); greater than 500000 µM in assay [1] (setting [5]); greater than 500000 µM in assay [1] (setting [6]); 309000 µM in assay [1] (setting [7]); 365000 µM in assay [1] (setting [8]). The IC50 growth inhibition in assay [1] (setting [9]) worked out at 65100 µM; in assay [1] (setting [10]), 452000 µM; in assay [1] (setting [11]), 333000 µM; in assay [2] (setting [12]), 354000 µM; in assay [2] (setting [13]), 354000 µM.

`[Ce+3].[Cl-].[Cl-].[Cl-]` [Cerium(III) chloride]: the IC50 growth inhibition in assay [1] (setting [3]), in assay [1] (setting [4]), in assay [1] (setting [5]), in assay [1] (setting [6]), in assay [1] (setting [7]) and in assay [1] (setting [8]) was less than 244 µM throughout. The IC50 growth inhibition in assay [1] (setting [9]), in assay [1] (setting [10]), in assay [1] (setting [11]), in assay [2] (setting [12]) and in assay [2] (setting [13]) was less than 244 µM in each case.

As to `[Cl-].[Cs+]` [Cesium chloride], the IC50 growth inhibition in assay [1] (setting [3]) is less than 244 µM; in assay [1] (setting [4]), less than 244 µM; in assay [1] (setting [5]), less than 244 µM; in assay [1] (setting [6]) it was 791 µM; in assay [1] (setting [7]) it was 5910 µM; in assay [1] (setting [8]), 2140 µM. Also, the IC50 growth inhibition is 16600 µM in assay [1] (setting [9]); less than 244 µM in assay [1] (setting [10]); 1200 µM in assay [1] (setting [11]); 452 µM in assay [2] (setting [12]); 3790 µM in assay [2] (setting [13]).

Consider `O.O.O.O.O.O.[Cl][Cr]([Cl])[Cl]` [Chromium(III) Chloride Hexahydrate], for which the IC50 growth inhibition in assay [1] (setting [3]) is less than 2.44 µM; in assay [1] (setting [4]), less than 2.44 µM; in assay [1] (setting [5]), less than 2.44 µM; in assay [1] (setting [6]), greater than 5000 µM; in assay [1] (setting [7]), 4910 µM; in assay [1] (setting [8]), 4910 µM. Further, the IC50 growth inhibition in assay [1] (setting [9]) was greater than 5000 µM; in assay [1] (setting [10]), less than 2.44 µM; in assay [1] (setting [11]), 322 µM; in assay [2] (setting [12]), 2160 µM; in assay [2] (setting [13]), 3460 µM.

In the case of `O.O.O.O.O.O.[Cl-].[Cl-].[Co+2]` [Cobalt chloride hexahydrate], the IC50 growth inhibition in assay [1] (setting [3]) was less than 2.44 µM; in assay [1] (setting [4]), less than 2.44 µM; in assay [1] (setting [5]), less than 2.44 µM; in assay [1] (setting [6]), 20.8 µM; in assay [1] (setting [7]), 175 µM; in assay [1] (setting [8]), 86.7 µM. The IC50 growth inhibition in assay [1] (setting [9]) was greater than 5000 µM; in assay [1] (setting [10]) it was 7.41 µM; in assay [1] (setting [11]) it was 13.8 µM; in assay [2] (setting [12]), 592 µM; in assay [2] (setting [13]), 484 µM.

On to `O=C(O)C[C@H](NCCN[C@@H](CC(=O)O)C(=O)O)C(=O)O` [Ethylenediamine-N,N'-disuccinic acid], for which the IC50 growth inhibition in assay [1] (setting [3]), in assay [1] (setting [4]), in assay [1] (setting [5]), in assay [1] (setting [6]), in assay [1] (setting [7]) and in assay [1] (setting [8]) was less than 122 µM in each case. Further, the IC50 growth inhibition in assay [1] (setting [9]) is 488 µM; in assay [1] (setting [10]), less than 122 µM; in assay [1] (setting [11]) it was less than 122 µM; in assay [2] (setting [12]), 1760 µM; in assay [2] (setting [13]), 2760 µM.

On to `[Cl][Fe]([Cl])[Cl]` [Ferric chloride], for which the IC50 growth inhibition in assay [1] (setting [3]) is greater than 50000 µM; in assay [1] (setting [4]) it was greater than 50000 µM; in assay [1] (setting [5]), 39200 µM; in assay [1] (setting [6]), greater than 50000 µM; in assay [1] (setting [7]), greater than 50000 µM; in assay [1] (setting [8]) it was greater than 50000 µM. Besides, the IC50 growth inhibition is greater than 50000 µM in assay [1] (setting [9]); 41700 µM in assay [1] (setting [10]); 237 µM in assay [1] (setting [11]); greater than 50000 µM in assay [2] (setting [12]); greater than 50000 µM in assay [2] (setting [13]).

Turning to `[Cl][Ga]([Cl])[Cl]` [Gallium(III)chloride], the IC50 growth inhibition in assay [1] (setting [3]), in assay [1] (setting [4]), in assay [1] (setting [5]), in assay [1] (setting [6]), in assay [1] (setting [7]) and in assay [1] (setting [8]) was less than 24.4 µM each time. In addition, the IC50 growth inhibition in assay [1] (setting [9]) was less than 24.4 µM; in assay [1] (setting [10]) it was less than 24.4 µM; in assay [1] (setting [11]), less than 24.4 µM; in assay [2] (setting [12]) it was 1000 µM; in assay [2] (setting [13]), 1670 µM.
